Experimental findings from patent US20250313535A1, “ALPHA 4 BETA 7 INTEGRIN MODULATORS AND USES THEREOF” (DICE MOLECULES SV, INC., priority 2022, published 2025) are described below.

pIC50: −log10 of the molar value. Read-outs that look alike come from different tables or passages of the source. A value given as a limit tells only on which side of the number the result lay.

Holding throughout (assay type): cell-based
The target in one experiment is α4β1 integrin (Homo sapiens (Human), UniProt P05556+P13612). The experiment in a line: Integrin Adhesion Assay: Protocol 5 (VCAM-coated plate, RPMI-8866 cells with stable LOF mutation of the ITGB7 gene). Put shortly: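 RPMI-8866 B cells with CRISPR/Cas9 ITGB7 knockout (clonal, verified by flow cytometry) adhered to VCAM-coated wells for 1 h at 37° C in HEPES/NaCl buffer with 1 mM MnCl2, 0.1 mM CaCl2, 1% BSA, 1% DMSO. Bound cells quantified by CellTiter-Glo luminescence after washing; % inhibition versus DMSO and control, 4-parameter fit.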
α4β1 integrin, sequence (P13612 34-1032): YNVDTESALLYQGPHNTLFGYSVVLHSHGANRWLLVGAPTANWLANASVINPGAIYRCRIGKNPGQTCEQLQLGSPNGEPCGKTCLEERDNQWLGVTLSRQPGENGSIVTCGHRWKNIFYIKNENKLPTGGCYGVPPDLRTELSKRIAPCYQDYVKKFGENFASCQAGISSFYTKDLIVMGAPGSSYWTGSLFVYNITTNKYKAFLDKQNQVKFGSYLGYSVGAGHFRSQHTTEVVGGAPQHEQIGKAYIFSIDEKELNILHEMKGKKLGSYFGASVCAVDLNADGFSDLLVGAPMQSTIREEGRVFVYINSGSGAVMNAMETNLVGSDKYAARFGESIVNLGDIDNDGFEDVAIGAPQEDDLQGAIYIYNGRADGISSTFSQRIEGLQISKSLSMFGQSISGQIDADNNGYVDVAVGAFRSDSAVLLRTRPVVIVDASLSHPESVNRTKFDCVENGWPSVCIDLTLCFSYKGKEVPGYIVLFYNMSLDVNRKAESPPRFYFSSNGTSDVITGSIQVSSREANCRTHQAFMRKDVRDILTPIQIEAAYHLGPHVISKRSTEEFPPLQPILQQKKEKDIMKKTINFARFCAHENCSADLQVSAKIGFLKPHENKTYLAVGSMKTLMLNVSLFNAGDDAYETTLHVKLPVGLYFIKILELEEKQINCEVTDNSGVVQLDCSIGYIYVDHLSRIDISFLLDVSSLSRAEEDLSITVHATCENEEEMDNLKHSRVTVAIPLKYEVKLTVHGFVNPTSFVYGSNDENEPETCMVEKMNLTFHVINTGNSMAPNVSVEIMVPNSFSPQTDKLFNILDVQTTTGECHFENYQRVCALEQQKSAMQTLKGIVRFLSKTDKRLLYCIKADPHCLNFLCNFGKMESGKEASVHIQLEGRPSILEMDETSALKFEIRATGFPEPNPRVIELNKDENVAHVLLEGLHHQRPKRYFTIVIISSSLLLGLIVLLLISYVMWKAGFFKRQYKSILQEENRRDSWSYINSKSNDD
α4β1 integrin, sequence (P05556 21-798): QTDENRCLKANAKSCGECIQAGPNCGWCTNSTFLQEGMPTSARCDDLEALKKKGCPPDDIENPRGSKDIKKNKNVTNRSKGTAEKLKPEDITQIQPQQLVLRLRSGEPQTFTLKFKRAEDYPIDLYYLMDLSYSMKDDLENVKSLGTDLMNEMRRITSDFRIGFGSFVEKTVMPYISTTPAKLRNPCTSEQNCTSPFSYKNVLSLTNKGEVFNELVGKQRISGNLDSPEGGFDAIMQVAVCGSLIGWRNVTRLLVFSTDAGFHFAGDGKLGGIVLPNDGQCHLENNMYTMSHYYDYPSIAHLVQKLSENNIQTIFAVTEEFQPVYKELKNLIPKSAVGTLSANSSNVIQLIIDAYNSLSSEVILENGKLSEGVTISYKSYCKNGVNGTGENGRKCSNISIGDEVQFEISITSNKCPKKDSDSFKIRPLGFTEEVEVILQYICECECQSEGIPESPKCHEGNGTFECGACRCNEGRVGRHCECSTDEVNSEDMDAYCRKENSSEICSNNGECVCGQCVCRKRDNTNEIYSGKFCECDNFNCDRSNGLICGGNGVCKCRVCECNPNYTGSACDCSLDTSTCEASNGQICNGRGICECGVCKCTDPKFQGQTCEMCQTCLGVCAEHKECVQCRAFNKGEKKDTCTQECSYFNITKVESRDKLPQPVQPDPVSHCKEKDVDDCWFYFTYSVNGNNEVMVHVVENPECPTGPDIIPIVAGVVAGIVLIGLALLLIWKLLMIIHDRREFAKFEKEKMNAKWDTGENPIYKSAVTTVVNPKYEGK

The target in experiment [1] is T1, α4β7 integrin (Homo sapiens (Human), UniProt P13612+P26010). The experiment in a line: Integrin Adhesion Assay: Protocol 1 (MAdCAM-coated plate, RPMI-8866 cells, CellTiter GLO readout). Put shortly: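 RPMI-8866 cells (2×10^6 per mL) added with compounds (1% DMSO) to MAdCAM-coated wells blocked in HEPES/NaCl buffer with 1 mM MnCl2, 0.1 mM CaCl2, 1% BSA; 1 h at 37° C, 5% CO2. After four washes, bound cells read by CellTiter GLO luminescence; % inhibition vs DMSO and control wells, 4-parameter fit.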
T1 sequence (P13612 34-1032): as the sequence (P13612 34-1032) above
T1 sequence (P26010 20-798): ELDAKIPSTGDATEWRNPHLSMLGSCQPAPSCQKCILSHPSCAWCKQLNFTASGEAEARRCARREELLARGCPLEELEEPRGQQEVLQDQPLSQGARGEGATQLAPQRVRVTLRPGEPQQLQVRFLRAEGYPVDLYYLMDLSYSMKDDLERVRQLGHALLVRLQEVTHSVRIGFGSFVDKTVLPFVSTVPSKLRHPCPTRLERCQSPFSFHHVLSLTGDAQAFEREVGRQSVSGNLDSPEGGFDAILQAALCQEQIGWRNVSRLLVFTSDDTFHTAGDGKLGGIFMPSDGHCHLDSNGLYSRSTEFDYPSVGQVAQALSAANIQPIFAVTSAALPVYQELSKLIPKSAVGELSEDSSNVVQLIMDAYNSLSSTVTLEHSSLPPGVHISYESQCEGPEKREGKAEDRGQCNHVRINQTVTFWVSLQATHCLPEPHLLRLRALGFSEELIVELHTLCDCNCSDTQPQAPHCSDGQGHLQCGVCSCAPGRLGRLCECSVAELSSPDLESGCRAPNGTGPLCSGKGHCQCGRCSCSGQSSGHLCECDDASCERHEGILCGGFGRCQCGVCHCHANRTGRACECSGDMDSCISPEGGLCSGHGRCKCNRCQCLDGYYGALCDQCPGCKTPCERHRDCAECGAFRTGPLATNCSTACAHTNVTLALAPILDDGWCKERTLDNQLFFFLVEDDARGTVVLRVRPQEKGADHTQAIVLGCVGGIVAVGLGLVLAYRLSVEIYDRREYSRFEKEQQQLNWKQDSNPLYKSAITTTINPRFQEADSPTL
On the technique in general: Cellular ATP, detected with luciferase, serves as a proxy for viable cell number.

The target of experiment [2] is T1, α4β7 integrin. The experiment in a line: Integrin Adhesion Assay: Protocol 4 (MAdCAM-coated plate, RPMI-8866 cells with stable LOF mutation of the ITGB1 gene). An outline of the steps: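 RPMI-8866 cells with CRISPR/Cas9 knockout of ITGB1 (2×10^6/mL) were added to MAdCAM-coated wells with compound (1% DMSO) in HEPES/NaCl buffer with 1 mM MnCl2, 0.1 mM CaCl2 and 1% BSA, then incubated 1 h at 37 °C. After four washes, adherent cells were quantified by CellTiter-Glo luminescence. Percent inhibition versus DMSO and control compound was fitted to 4-parameter curves.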

The mark [3] stands for this setting: RPMI-8866 cells with stable LOF mutation of the ITGB7 gene, read-out: Mean IC50 α4β1 KO^b.
The mark [4] stands for this setting: RPMI-8866 cells with stable LOF mutation of the ITGB1 gene, read-out: Mean IC50 α4β7 KO^a.
Where [5] appears, read: Protocol 5, RPMI-8866 cells with LOF mutation of ITGB7, VCAM, read-out: Mean IC50 α4β1 KO.
The mark [6] stands for this setting: Protocol 4, RPMI-8866 cells with LOF mutation of ITGB1, MAdCAM, read-out: Mean IC50 α4β7 KO.

A word on the pIC50: it is the negative decadic logarithm of the IC50, by convention in mol/L.

Regarding `CN(C)Cc1cccc2c(-c3cccc4c(C[C@H](NC(=O)c5c(F)cc(N6CCOC[C@@H]6C(F)(F)F)cc5CN5CCCC5)C(=O)O)cccc34)nccc12` [Compound 433], the pIC50 on α4β1 integrin (setting [3]) was below 6.00; on α4β7 integrin [1] it was above 8.00; on α4β7 integrin [2] (setting [4]), above 8.00.

As for `Cc1c(F)ccc(F)c1C(=O)N[C@@H](Cc1cccc2c(-c3c(C(F)(F)F)c4ccccc4n(C)c3=O)cccc12)C(=O)O` [Compound 444], the pIC50 on α4β1 integrin (setting [3]) was below 6.00; against α4β7 integrin [1], 7.00 to 8.00; on α4β7 integrin [2] (setting [4]), 7.00 to 8.00.

With `CCOCc1cc(OC)c(-c2cccc3c(C[C@H](NC(=O)c4c(C)cccc4F)C(=O)O)cccc23)c(OC)c1` [Compound 448], the pIC50 at α4β1 integrin (setting [3]) was 6.00 to 7.00; at α4β7 integrin [1], above 8.00; at α4β7 integrin [2] (setting [4]), above 8.00.

Consider `Cc1cccc(F)c1C(=O)N[C@@H](Cc1cccc2c(-c3c(C(F)(F)F)c4cc(N(C)C)ccc4n(C)c3=O)cccc12)C(=O)O` [Compound 449], for which the pIC50 on α4β1 integrin (setting [3]) is below 6.00; against α4β7 integrin [1], 6.00 to 7.00; at α4β7 integrin [2] (setting [4]), 6.00 to 7.00.

As for `COc1ccc(CN(C)C)c(OC)c1-c1cccc2c(C[C@H](NC(=O)c3c(C)cccc3F)C(=O)O)cccc12` [Compound 450], the pIC50 on α4β1 integrin (setting [3]) was 6.00 to 7.00; on α4β7 integrin [1], above 8.00; on α4β7 integrin [2] (setting [4]), above 8.00.

Regarding `COc1ccc(CN(C)C)c(OC)c1-c1cccc2c(C[C@H](NC(=O)c3c(F)cccc3CN3CCC(F)(F)CC3)C(=O)O)cccc12` [Compound 452], the pIC50 at α4β1 integrin (setting [3]) was 6.00 to 7.00; against α4β7 integrin [1], above 8.00; on α4β7 integrin [2] (setting [4]), above 8.00.

Take `CN(C)c1ccc2c(c1)c(C(F)(F)F)c(-c1cccc3c(C[C@H](NC(=O)C4(C(F)(F)F)CCN(CC(F)(F)F)CC4)C(=O)O)cccc13)c(=O)n2C` [Compound 454]: the results for the pIC50 at α4β1 integrin (setting [3]), at α4β7 integrin [1] and on α4β7 integrin [2] (setting [4]) were below 6.00, 7.00 to 8.00 and 7.00 to 8.00, respectively.

For the compound `Cn1c(=O)c(-c2cccc3c(C[C@H](NC(=O)c4c(F)cccc4CN4CCC(F)(F)C4)C(=O)O)cccc23)c(C(F)(F)F)c2ccccc21` [Compound 456], the pIC50 at α4β1 integrin (setting [3]) was below 6.00; on α4β7 integrin [1] it was 7.00 to 8.00; at α4β7 integrin [2] (setting [4]) it was 7.00 to 8.00.

On to `Cc1cccc(F)c1C(=O)N[C@@H](Cc1cccc2c(-c3c(C(F)(F)F)ccn(C)c3=O)cccc12)C(=O)O` [Compound 460], for which the negative-log IC50 (pIC50) on α4β1 integrin (setting [3]) is below 6.00; at α4β7 integrin [1], 7.00 to 8.00; at α4β7 integrin [2] (setting [4]), 7.00 to 8.00.

Take `Cn1c(=O)c(-c2cccc3c(C[C@H](NC(=O)c4c(F)cc(N5CCC(CO)C5)cc4F)C(=O)O)cccc23)c(C(F)(F)F)c2ccccc21` (stereo partly shown) [Compound 462]: the pIC50 on α4β7 integrin [1] and on α4β7 integrin [2] (setting [4]) was 6.00 to 7.00 throughout.

Consider `CN(C)Cc1ccc2c(c1)c(C(F)(F)F)c(-c1cccc3c(C[C@H](NC(=O)c4c(F)cccc4F)C(=O)O)cccc13)c(=O)n2C` [Compound 697], for which the figures for the pIC50 at α4β1 integrin (setting [5]), at α4β7 integrin [1] (protocol not given) and at α4β7 integrin [2] (setting [6]) were 6.00 to 7.00, above 8.00 and above 8.00, respectively.

For `CN(C)Cc1ccc2c(c1)c(C(F)(F)F)c(-c1cccc3c(C[C@H](NC(=O)c4c(F)cc(C(F)(F)F)cc4F)C(=O)O)cccc13)c(=O)n2C` [Compound 699], the pIC50 at α4β1 integrin (setting [5]) is 6.00 to 7.00; against α4β7 integrin [1] (protocol not given) it was above 8.00; on α4β7 integrin [2] (setting [6]) it was 7.00 to 8.00.

With `CN(C)c1ccc2c(C(F)(F)F)c(-c3cccc4c(C[C@H](NC(=O)c5c(F)cccc5F)C(=O)O)cccc34)c(=O)n(C)c2c1` [Compound 719], the negative logarithm of the IC50 (pIC50) on α4β1 integrin (setting [5]) was below 6.00; against α4β7 integrin [1] (protocol not given), 6.00 to 7.00; at α4β7 integrin [2] (setting [6]), below 6.00.

In the case of `O=C(N[C@@H](Cc1cccc2c(-n3cccc(C(F)(F)F)c3=O)cccc12)C(=O)O)c1c(F)cccc1F` [Compound 1054], the negative-log IC50 (pIC50) at α4β1 integrin (setting [5]) was below 6.00; on α4β7 integrin [1] (protocol not given) it was 7.00 to 8.00; on α4β7 integrin [2] (setting [6]), 7.00 to 8.00.

As for `Cc1cccc(C)c1-c1cc(C(=O)N[C@@H](Cc2cccc3c(-n4c(=O)cc(CCN5CC(F)C5)n(C)c4=O)cccc23)C(=O)O)c(F)c(C(F)(F)F)c1` [Compound 1056], the pIC50 was 6.00 to 7.00 at α4β7 integrin [1] (protocol not given) and below 6.00 on α4β7 integrin [2] (setting [6]).
